# In publication PMC8876525 (Viruses, 2022):
# Marks after values point to notes of the source that are not given here.
# What was measured:
# HBV [1] = test: Secreted HBV DNA in HepAD38 culture supernatant (RT-qPCR); assay type: cell-based; conditions: for EC50: Hepatitis B virus, read-out: EC50 (secreted HBV DNA); for Residual HBV DNA level (secreted) relative to DMSO control: 20 μM compound
# [2] = CCK-8 cytotoxicity assay in HepAD38 cells; assay type: cell-based, Human; conditions: human, 6 days
# HepAD38 cells = test: CCK-8 cytotoxicity assay in HepAD38 cells; assay type: cell-based, Human
# HBV capsid = HBV capsid (Hepatitis B virus genotype D subtype ayw, UniProt P03146); test: Intracellular HBV capsid formation; assay type: cell-based; conditions: 6 days; for Effect on intracellular HBV capsid formation at single concentration: HepAD38 or HepG2-HBV1.3 cells, compounds 10 μM, ETV 25 nM, BAY 41-4109 2 μM
# HBV [3] = test: Secreted HBV DNA in HepG2-HBV1.3 culture supernatant (RT-qPCR); assay type: cell-based; conditions: HepG2-HBV1.3 cells
# [4] = CCK-8 cytotoxicity assay in HepG2-HBV1.3 (HepG2) cells; assay type: cell-based; conditions: human
# HBeAg = test: Secreted HBeAg ELISA; assay type: cell-based, HBV; conditions: 6 days
# HBsAg = test: Secreted HBsAg ELISA; assay type: cell-based, HBV; conditions: 6 days, ETV 25 nM, BAY 41-4109 2 μM
# HBV 3.5 kb RNA = test: Intracellular HBV 3.5 kb RNA (RT-qPCR); assay type: cell-based; conditions: 6 days
# HBV core DNA = test: Intracellular HBV core DNA (qPCR) and replicative intermediates (Southern blot); assay type: cell-based; conditions: 6 days; for Effect on intracellular HBV core DNA: qPCR
# HBV encapsidated pgRNA = test: Encapsidated pgRNA and total HBV RNAs (Northern blot); assay type: cell-based; conditions: HepAD38 cells, BAY 41-4109 2 μM; for Effect on HBV encapsidated pgRNA: C-18, C-39, C-19 5 μM, ETV 25 nM
# HBV [5] = test: HepG2-NTCP de novo HBV infection model (viral markers, cccDNA Taq-Man qPCR); assay type: cell-based; conditions: HepG2-NTCP cells, 5 μM
# HBc = HBc (Hepatitis B virus genotype D subtype ayw, UniProt P03146); test: Immunofluorescence of HBV core protein in HepAD38 cells; assay type: cell-based; conditions: 3 days, C-18 and C-39 5 μM, BAY 41-4109 2 μM
# wild-type HBV = test: Drug susceptibility assay, HepG2 transfected with HBV1.1-WT; assay type: cell-based; conditions: Hepatitis B virus, 144 h; wild-type HBV in HepG2, secreted HBV DNA, 6 days; read-out: viral replication EC50
# [6] = system: ETV-resistant mutant (rtL180M/S202G/M204V) HBV; test: Drug susceptibility assay, HepG2 transfected with ETV-resistant mutant; assay type: cell-based; conditions: Hepatitis B virus, HepG2, 144 h, read-out: viral replication EC50
# Chain of HBV capsid (P03146 whole entry): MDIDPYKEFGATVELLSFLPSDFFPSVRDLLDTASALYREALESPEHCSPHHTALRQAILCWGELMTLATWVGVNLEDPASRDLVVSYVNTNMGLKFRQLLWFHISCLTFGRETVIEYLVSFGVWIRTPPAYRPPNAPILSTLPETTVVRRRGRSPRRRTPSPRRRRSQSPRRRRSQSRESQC
# Chain of HBc (P03146 whole entry): as above
smiles,measurement,setting,value
CC(=O)N1c2ccc(S(=O)(=O)N3CCCC(C(=O)Nc4ccc(F)c(Cl)c4)C3)cc2CC1C (stereo not drawn) [Compound C-31],SI (CC50/EC50),HBV [1]; HepAD38 cells,96.0 ^a
same,EC50,"HBV [1]; 144 h, HepAD38 cells, 6 days",260 ± 30 nM
same,CC50 at 6 days,[2],25 ± 3.3 µM
Nc1nc(N2C(=O)C3CC=CCC3C2=O)nn1-c1ccccc1 (stereo not drawn) [Compound C-5],Residual HBV DNA level (secreted) relative to DMSO control,HBV [1]; HepAD38 cells,51%
O=C(CSc1nnc2ccc(C(=O)Nc3cccc(F)c3)cn12)Nc1ccc(F)c(F)c1 [Compound C-25],SI (CC50/EC50),HBV [1]; HepAD38 cells,114.6 ^a
same,EC50,"HBV [1]; 144 h, HepAD38 cells, 6 days",290 ± 20 nM
same,CC50 at 6 days,[2],33.2 ± 1.9 µM
Cc1onc(C(=O)Nc2ccc(F)c(F)c2)c1COc1cccc(C(F)(F)F)c1 [Compound C-1],Residual HBV DNA level (secreted) relative to DMSO control,HBV [1]; HepAD38 cells,62%
Cc1cc(O)c(C2=Nc3c(C(N)=O)cnn3C(c3cccc(Cl)c3)C2)c(=O)o1 (stereo not drawn) [Compound C-6],Residual HBV DNA level (secreted) relative to DMSO control,HBV [1]; HepAD38 cells,36%
CCOC(=O)c1c(C)[nH]c(C)c1S(=O)(=O)N1CCCC(C(=O)Nc2ccc(F)c(Cl)c2)C1 (stereo not drawn) [Compound C-37],SI (CC50/EC50),HBV [1]; HepAD38 cells,31.3 ^a
same,EC50,"HBV [1]; 144 h, HepAD38 cells, 6 days",350 ± 50 nM
same,CC50 at 6 days,[2],11 ± 0.7 µM
CC1Oc2ccc(S(=O)(=O)N3CCCC(C(=O)Nc4ccc(F)c(Cl)c4)C3)cc2NC1=O (stereo not drawn) [Compound C-35],SI (CC50/EC50),HBV [1]; HepAD38 cells,23.9 ^a
same,EC50,"HBV [1]; 144 h, HepAD38 cells, 6 days",410 ± 10 nM
same,CC50 at 6 days,[2],9.8 ± 1 µM
same,Cytotoxicity in words,HepAD38 cells,medium cytotoxicity
CC1(C(=O)NCc2ccc(F)cc2)CCCN(C(=O)Nc2ccc(F)c(Cl)c2)C1 (stereo not drawn) [Compound C-27],SI (CC50/EC50),HBV [1]; HepAD38 cells,72.8 ^a
same,EC50,"HBV [1]; 144 h, HepAD38 cells, 6 days",1120 ± 50 nM
same,CC50 at 6 days,[2],81.5 ± 5.8 µM
O=C(CSc1nnc(-c2cccs2)n1CCc1ccccc1)Nc1ccc(F)cc1 [Compound C-7],SI (CC50/EC50),HBV [1]; HepAD38 cells,>54.7
same,EC50,"HBV [1]; 144 h, HepAD38 cells, 6 days",1830 ± 440 nM
same,CC50 at 6 days,[2],> 100 µM
same,Effect on intracellular HBV capsid formation at single concentration,HBV capsid,moderate inhibition
Cc1cc2c(cc1S(=O)(=O)N1CCCC(C(=O)Nc3ccc(F)c(Cl)c3)C1)OC(C)C(=O)N2 (stereo not drawn) [Compound C-18],SI (CC50/EC50),HBV [1]; HepAD38 cells,131.2
same,EC50,"HBV [1]; 144 h, HepAD38 cells, 6 days",110 ± 30 nM
same,CC50 at 6 days,[2],14.8 ± 0.7 µM
same,SI (CC50/EC50),HBV [3],147.1
same,EC50,"HBV [3]; Hepatitis B virus, 144 h, 6 days",140 nM
same,CC50 at 6 days,[4],20.6 µM
same,Effect on intracellular HBV capsid formation at single concentration,HBV capsid,strongly inhibited
same,"Effect on intracellular HBV capsid formation, concentration series",HBV capsid; HepG2-HBV1.3 cells,downregulated
same,Effect on secreted HBeAg,HBeAg; HepAD38 cells,reduced the HBeAg level
same,Effect on secreted HBeAg,HBeAg; HepG2-HBV1.3 cells,downregulated
same,Effect on secreted HBsAg,HBsAg; HepAD38 cells,no impact on HBsAg
same,Effect on intracellular HBV 3.5 kb RNA,HBV 3.5 kb RNA; HepAD38 cells,dramatic decrease
same,Effect on intracellular HBV 3.5 kb RNA,HBV 3.5 kb RNA; HepG2-HBV1.3 cells,downregulated
same,Effect on HBV replicative intermediates,"HBV core DNA; HepAD38 cells, Southern blot",notably downregulated
same,Effect on intracellular HBV core DNA,HBV core DNA; HepAD38 cells,dramatic decrease
same,Effect on intracellular HBV core DNA,HBV core DNA; HepG2-HBV1.3 cells,downregulated
same,Effect on intracellular total HBV RNAs,"HBV encapsidated pgRNA; C-18, C-39 5 μM",slight decrease
same,Effect on HBV encapsidated pgRNA,HBV encapsidated pgRNA,markedly downregulated
same,"Effect on cccDNA formation, treatment together with viral inoculum (day 0)",HBV [5],prevented the formation of cccDNA during the early postentry step
same,"Effect on pre-established cccDNA, treatment 4 days after infection (day 4)",HBV [5],minor effect
same,HBc localisation / aggregation,HBc,induced punctate HBc aggregation within the nucleus
"C=C1[C@H](CO)[C@@H](O)C[C@@H]1n1cnc2c(=O)[nH]c(N)nc21 [ETV, Entecavir, reference compound]",EC50,"HBV [1]; HePAD38, 144 h",3 ± 1 nM
same,Effect on intracellular HBV capsid formation at single concentration,HBV capsid,much less or no inhibition effects
same,Effect on secreted HBsAg,HBsAg; HepAD38 cells,no impact on HBsAg production
same,Effect on secreted HBsAg,HBsAg; HepG2-HBV1.3 cells,no impact on HBsAg production
same,Effect on HBV encapsidated pgRNA,HBV encapsidated pgRNA,upregulated
same,EC50,wild-type HBV,3.2 nM
same,EC50,[6],6.1 nM
